For one data set, the target named is CYP2C19 (Homo sapiens, UniProt P33261). In words: Inhibition of CYP2C19 in human liver microsomes assessed as remaining activity by measuring S-mephenytoin 4-hydroxylase activity at 10 uM pre-incubated for 5 mins followed by NADPH regenerating system addition by LC-MS/MS analysis relative to control. Format: ADME. Particulars: probe S-mephenytoin (4-hydroxylation), read-out: Activity.

Data set [1] deals with T1, Steroid hormone receptor ERR2 (Homo sapiens, UniProt O95718).
T1 sequence (O95718 whole entry): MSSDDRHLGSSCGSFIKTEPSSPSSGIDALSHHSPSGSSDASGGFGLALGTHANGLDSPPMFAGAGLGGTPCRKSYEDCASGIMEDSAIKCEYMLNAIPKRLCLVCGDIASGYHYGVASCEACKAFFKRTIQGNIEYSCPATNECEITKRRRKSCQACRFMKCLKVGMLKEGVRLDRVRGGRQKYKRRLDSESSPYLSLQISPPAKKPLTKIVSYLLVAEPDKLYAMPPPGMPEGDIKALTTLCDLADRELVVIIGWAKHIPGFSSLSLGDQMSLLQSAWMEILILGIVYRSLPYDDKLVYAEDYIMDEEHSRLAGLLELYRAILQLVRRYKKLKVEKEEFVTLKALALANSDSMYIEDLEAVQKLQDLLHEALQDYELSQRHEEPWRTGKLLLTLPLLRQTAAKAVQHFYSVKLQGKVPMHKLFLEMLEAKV
In words: Inhibition of fluorescien-conjugated coactivator PGC1a binding to ERRbeta (unknown origin) after 1 hr by TR-FRET assay.

For a further data set, the target named is CYP2C9 (Homo sapiens, UniProt P11712). Nature of the data set: Inhibition of CYP2C9 in human liver microsomes assessed as remaining activity by measuring tolbutamide 4-hydroxylase activity at 10 uM pre-incubated for 5 mins followed by NADPH regenerating system addition by LC-MS/MS analysis relative to control. The class given is ADME. As to conditions: probe tolbutamide (4-hydroxylation), read-out: Activity. On the technique in general: Microsomes from liver hold many membrane-bound enzymes, among them those of drug oxidation.

The nature of data set [2]: Metabolic stability in dog liver microsomes assessed as compound remaining at 1 uM after 30 mins in presence of NADPH by LC-MS/MS analysis. The class given is ADME, Canis lupus familiaris. Particulars: read-out: Stability.
Data set [3] deals with T2, Estrogen-related receptor gamma (Homo sapiens, UniProt P62508).
T2 sequence (P62508 whole entry): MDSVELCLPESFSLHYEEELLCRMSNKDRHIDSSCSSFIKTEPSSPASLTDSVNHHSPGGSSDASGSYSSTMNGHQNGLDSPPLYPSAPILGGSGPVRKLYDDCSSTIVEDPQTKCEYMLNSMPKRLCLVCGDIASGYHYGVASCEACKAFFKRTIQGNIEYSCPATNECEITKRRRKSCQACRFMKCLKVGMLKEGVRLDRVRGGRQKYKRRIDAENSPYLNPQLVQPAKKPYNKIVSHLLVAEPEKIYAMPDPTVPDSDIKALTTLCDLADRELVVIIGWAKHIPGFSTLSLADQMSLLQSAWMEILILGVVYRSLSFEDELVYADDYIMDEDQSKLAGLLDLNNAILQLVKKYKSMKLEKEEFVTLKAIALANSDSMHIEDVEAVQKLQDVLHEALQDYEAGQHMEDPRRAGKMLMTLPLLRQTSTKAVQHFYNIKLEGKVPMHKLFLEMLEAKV
Description: Inverse agonist activity at ERRgamma (unknown origin) expressed in human AD293 cells after 24 hrs by beta-galactosidase/luciferase reporter gene assay

The target in the next data set is T3, Estrogen receptor (Homo sapiens, UniProt P03372).
T3 sequence (P03372 whole entry): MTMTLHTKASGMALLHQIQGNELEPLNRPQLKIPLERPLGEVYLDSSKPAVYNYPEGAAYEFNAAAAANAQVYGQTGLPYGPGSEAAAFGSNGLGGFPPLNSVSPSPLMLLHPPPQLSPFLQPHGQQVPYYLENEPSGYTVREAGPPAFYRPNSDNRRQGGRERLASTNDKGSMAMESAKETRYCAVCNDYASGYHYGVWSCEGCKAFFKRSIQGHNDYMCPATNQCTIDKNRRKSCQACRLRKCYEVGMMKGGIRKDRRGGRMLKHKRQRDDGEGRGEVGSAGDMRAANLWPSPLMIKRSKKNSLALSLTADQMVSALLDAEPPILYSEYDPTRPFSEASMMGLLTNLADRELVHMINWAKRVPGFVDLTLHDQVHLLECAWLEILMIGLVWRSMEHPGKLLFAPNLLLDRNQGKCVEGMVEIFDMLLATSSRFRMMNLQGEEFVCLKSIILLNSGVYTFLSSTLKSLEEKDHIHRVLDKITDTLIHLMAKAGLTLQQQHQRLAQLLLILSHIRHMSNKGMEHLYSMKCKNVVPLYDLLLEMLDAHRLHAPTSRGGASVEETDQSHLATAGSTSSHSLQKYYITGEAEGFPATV

In a further data set the target is CYP2D6 (Homo sapiens, UniProt P10635). Nature of the data set: Inhibition of CYP2D6 in human liver microsomes assessed as remaining activity by measuring dextromethorphan O-demethylase activity at 10 uM pre-incubated for 5 mins followed by NADPH regenerating system addition by LC-MS/MS analysis relative to control. The class given is ADME. Particulars: probe dextromethorphan (O-demethylation), read-out: Activity.

Data set [4] can be described thus: in vitro. As to conditions: rat, liver microsomes.
Description: Metabolic stability in rat liver microsomes assessed as compound remaining at 1 uM after 30 mins in presence of NADPH by LC-MS/MS analysis
Data set [5] is described as follows: Permeability of the compound in PBS at pH 7.4 at 10 uM after 5 hrs by LC-MS/MS analysis. Format: ADME. Particulars: not told, read-out: permeability.
The nature of data set [6]: in vitro. Particulars: human, liver microsomes.
Description: Metabolic stability in human liver microsomes assessed as compound remaining at 1 uM after 30 mins in presence of NADPH by LC-MS/MS analysis
The nature of data set [7]: in vitro. Particulars: mouse, liver microsomes.
Description: Metabolic stability in mouse liver microsomes assessed as compound remaining at 1 uM after 30 mins in presence of NADPH by LC-MS/MS analysis
For the next data set, the target named is T4, CYP1A2 (Homo sapiens, UniProt P05177).
T4 sequence (P05177 whole entry): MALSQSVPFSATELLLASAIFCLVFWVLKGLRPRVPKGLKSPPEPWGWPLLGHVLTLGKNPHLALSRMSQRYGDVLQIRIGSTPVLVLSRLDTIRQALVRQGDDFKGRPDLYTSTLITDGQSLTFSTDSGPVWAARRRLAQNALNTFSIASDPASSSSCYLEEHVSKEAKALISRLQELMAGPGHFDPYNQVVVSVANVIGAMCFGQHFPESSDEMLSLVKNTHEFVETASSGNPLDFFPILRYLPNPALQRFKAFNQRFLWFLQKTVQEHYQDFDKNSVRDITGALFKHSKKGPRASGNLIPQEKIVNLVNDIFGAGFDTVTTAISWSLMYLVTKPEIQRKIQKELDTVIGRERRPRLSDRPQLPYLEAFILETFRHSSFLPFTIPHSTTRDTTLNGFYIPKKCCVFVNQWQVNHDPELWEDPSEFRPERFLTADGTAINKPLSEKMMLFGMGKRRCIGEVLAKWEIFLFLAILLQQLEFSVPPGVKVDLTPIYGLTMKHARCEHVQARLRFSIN
In words: Inhibition of CYP1A2 in human liver microsomes assessed as remaining activity by measuring phenacetin O-deethylase activity at 10 uM pre-incubated for 5 mins followed by NADPH regenerating system addition by LC-MS/MS analysis relative to control. Format: ADME. As to conditions: probe phenacetin (O-deethylation), read-out: Activity.

Data set [8] deals with T5, Steroid hormone receptor ERR1 (Homo sapiens, UniProt P11474).
T5 sequence (P11474 whole entry): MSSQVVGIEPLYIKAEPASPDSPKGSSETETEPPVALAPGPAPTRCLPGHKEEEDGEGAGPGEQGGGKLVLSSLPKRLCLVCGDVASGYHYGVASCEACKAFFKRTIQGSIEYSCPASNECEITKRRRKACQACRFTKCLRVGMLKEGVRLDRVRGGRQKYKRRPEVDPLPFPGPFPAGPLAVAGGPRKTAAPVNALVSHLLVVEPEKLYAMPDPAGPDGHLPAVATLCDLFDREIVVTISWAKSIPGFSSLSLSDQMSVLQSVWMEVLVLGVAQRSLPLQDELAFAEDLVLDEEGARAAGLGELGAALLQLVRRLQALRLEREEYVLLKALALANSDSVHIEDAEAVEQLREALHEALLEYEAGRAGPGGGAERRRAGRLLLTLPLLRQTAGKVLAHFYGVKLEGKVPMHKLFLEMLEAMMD
Nature of the data set: Inhibition of fluorescien-conjugated coactivator PGC1a binding to ERRalpha (unknown origin) after 1 hr by TR-FRET assay. Background: In TR-FRET formats the signal depends on donor and acceptor labels being close together.

In data set [9] the target is T2, Estrogen-related receptor gamma. The source holds these as a separate data set.
Description: Inhibition of fluorescien-conjugated coactivator PGC1a binding to GST-tagged human ERRgamma LBD after 1 hr by TR-FRET assay
Another data set concerns the target CYP3A4 (Homo sapiens, UniProt P08684). Nature of the data set: Inhibition of CYP3A4 in human liver microsomes assessed as remaining activity by measuring midazolam 1'-hydroxylase activity at 10 uM pre-incubated for 5 mins followed by NADPH regenerating system addition by LC-MS/MS analysis relative to control. The class given is ADME. As to conditions: probe midazolam (1'-hydroxylation), read-out: Activity.

Sequence of CYP2C19 (P33261 whole entry): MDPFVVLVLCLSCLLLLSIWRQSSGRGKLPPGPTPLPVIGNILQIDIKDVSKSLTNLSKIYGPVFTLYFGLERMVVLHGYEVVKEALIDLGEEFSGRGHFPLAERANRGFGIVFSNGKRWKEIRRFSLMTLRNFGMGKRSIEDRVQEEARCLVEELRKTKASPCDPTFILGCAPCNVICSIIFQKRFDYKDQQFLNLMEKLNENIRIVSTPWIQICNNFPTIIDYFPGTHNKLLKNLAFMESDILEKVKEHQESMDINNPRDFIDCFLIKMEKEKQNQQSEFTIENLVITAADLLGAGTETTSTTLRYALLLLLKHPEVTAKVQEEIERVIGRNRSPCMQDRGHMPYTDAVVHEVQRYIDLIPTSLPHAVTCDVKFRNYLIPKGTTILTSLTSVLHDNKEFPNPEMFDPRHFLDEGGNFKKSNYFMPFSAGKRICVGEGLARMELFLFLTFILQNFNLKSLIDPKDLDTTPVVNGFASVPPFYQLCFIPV
Sequence of CYP2D6 (P10635 whole entry): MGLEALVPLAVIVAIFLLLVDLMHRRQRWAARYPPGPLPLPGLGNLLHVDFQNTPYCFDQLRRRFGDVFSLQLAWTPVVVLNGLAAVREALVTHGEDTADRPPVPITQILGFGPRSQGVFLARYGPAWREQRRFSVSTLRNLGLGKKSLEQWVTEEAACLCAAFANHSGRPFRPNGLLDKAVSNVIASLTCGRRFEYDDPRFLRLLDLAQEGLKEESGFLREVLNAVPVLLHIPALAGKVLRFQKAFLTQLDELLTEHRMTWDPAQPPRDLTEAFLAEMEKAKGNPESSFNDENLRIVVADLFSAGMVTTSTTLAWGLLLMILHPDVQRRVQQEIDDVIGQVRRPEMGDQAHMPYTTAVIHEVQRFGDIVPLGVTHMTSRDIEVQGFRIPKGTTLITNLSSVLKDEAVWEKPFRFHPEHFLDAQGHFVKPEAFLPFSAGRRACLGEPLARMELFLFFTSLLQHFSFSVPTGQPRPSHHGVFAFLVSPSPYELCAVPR
Sequence of CYP3A4 (P08684 whole entry): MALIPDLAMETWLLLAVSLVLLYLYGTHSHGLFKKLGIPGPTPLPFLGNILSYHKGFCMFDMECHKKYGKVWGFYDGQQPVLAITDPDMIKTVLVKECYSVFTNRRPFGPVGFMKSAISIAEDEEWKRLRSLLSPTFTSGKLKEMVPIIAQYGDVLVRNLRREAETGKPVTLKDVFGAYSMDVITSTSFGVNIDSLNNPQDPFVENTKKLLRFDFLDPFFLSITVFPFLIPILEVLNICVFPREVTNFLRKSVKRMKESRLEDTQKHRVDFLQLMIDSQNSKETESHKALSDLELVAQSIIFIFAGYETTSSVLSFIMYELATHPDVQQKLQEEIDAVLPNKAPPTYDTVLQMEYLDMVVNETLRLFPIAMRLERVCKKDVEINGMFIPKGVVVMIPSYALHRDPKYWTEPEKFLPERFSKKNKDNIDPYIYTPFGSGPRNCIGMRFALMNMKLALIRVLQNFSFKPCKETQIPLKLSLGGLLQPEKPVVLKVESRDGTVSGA
Sequence of CYP2C9 (P11712 whole entry): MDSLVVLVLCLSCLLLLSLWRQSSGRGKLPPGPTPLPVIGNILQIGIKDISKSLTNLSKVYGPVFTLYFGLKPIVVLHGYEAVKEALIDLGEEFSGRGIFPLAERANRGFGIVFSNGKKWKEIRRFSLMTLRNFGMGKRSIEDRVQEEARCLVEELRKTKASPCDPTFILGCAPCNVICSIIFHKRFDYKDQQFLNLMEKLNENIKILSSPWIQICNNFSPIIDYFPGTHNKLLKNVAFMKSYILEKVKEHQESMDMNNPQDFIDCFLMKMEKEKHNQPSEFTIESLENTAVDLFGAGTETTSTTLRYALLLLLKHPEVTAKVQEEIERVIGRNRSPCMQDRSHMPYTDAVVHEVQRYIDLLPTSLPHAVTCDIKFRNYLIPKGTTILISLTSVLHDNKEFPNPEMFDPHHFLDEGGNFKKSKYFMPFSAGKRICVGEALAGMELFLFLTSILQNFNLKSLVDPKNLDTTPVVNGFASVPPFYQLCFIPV
Description for Estrogen receptor: Inhibition of fluorescien-conjugated coactivator PGC1a binding to ERalpha (unknown origin) after 1 hr by TR-FRET assay

A word on the IC50: it is the concentration that gives 50% inhibition. Low readings indicate higher potency, high ones lower potency. `CNCCOc1ccc(/C(=C(/CCCO)c2ccccc2)c2ccc(O)cc2)cc1.Cl`: the activity at 10 µM worked out at 76% at CYP2C19; 44% on CYP2C9; 89% at CYP2D6; 91% at CYP1A2; 85% on CYP3A4. Also, the IC50 in [1] is more than 10 µM; in [3] it was 187 nM; against Estrogen receptor, 3.34 µM; in [8], more than 10 µM; in data set [9] it was 190 nM. Further, the remaining at 0.5 h, 1 µM in data set [2] is 76%; in the data set “in vitro [4]”, 79%; in “in vitro [6]”, 83%; in “in vitro [7]”, 20%. For the same compound, in data set [5], the Papp at 5 h, 10 µM stood at 0.03 ×10⁻⁶ cm/s.

For `CN(C)CCOc1ccc(/C(=C(/CCCO)c2ccccc2)c2ccc(Br)cc2)cc1.Cl`, the activity at 10 µM on CYP2C19 is 61%; at CYP2C9, 86%; on CYP2D6, 99%; on CYP1A2, more than 100%; at CYP3A4, 88%. In addition, the IC50 in data set [1] is 6.95 µM; in data set [3] it was 719 nM; on Estrogen receptor, more than 10 µM; in [8], more than 10 µM; in [9], 117 nM. Besides, the remaining at 0.5 h, 1 µM in data set [2] is 5.8%; in “in vitro [4]” it was 30%; in the data set “in vitro [6]” it was 42%; in “in vitro [7]”, 35%. Further, the Papp at 5 h, 10 µM in [5] was 6.52 ×10⁻⁶ cm/s.

Consider `CCN(CC)CCOc1ccc(/C(=C(/CCCO)c2ccccc2)c2ccc(O)cc2)cc1.Cl`, for which the activity at 10 µM was 70% on CYP2C19; 90% on CYP2C9; 98% on CYP2D6; 82% on CYP1A2; 93% on CYP3A4. Further, the IC50 is more than 10 µM in data set [1]; 79 nM in data set [3]; 0.875 µM against Estrogen receptor; more than 10 µM in data set [8]; 180 nM in [9]. Further, the remaining at 0.5 h, 1 µM in data set [2] was found to be 22%; in “in vitro [4]” it was 32%; in the data set “in vitro [6]”, 18%; in “in vitro [7]” it was 10%. Moreover, the Papp at 5 h, 10 µM in [5] stood at 1.02 ×10⁻⁶ cm/s.

As for `Cc1ccc(/C(=C(\CCCO)c2ccccc2)c2ccc(OCCN(C)C)cc2)cc1.Cl`, the activity at 10 µM was more than 100% on CYP2C19; 60% at CYP2C9; more than 100% on CYP2D6; more than 100% at CYP1A2; more than 100% at CYP3A4. The IC50 was more than 10 µM in [1]; 669 nM in data set [3]; more than 10 µM against Estrogen receptor; more than 10 µM in [8]; 270 nM in [9]. Also, the remaining at 0.5 h, 1 µM in [2] worked out at 13%; in “in vitro [4]”, 25%; in the data set “in vitro [6]” it was 59%; in the data set “in vitro [7]”, 16%. The Papp at 5 h, 10 µM in [5] was determined as 9.94 ×10⁻⁶ cm/s.

The record behind these values is ChEMBL document CHEMBL3856205, “Synthesis and biological evaluation of novel 4-hydroxytamoxifen analogs as estrogen-related receptor gamma inverse agonists” (Eur J Med Chem, 2016).
